Assay results published in patent US5668143A, “Heterocyclic benzenesulfonylimine derivatives as inhibitors of IL-1 action” (Merrell Pharmaceuticals Inc., priority 1996, dated 1997).

Key:
[1] = test system: interleukin-1 beta (IL-1β) release (production) by human peripheral blood monocyte-derived macrophages; assay: Endotoxin-Induced Interleukin-1 Beta Release by Human Macrophages; assay type: cell-based; conditions: Macrophage, endotoxin 20 ng/mL (Salmonella typhimurium, Re-mutant), compound 1 h before stimulation, supernatant at 24 h, ELISA
Description: Endotoxin-Induced Interleukin-1 Beta Release by Human Macrophages The objective of this test is to determine the inhibitory concentrations for the test compounds against endotoxin-induced interleukin-1 beta (IL-1β) release (production) by human peripheral blood monocyte-derived macrophages. The source of the human peripheral blood monocyte-derived macrophages is as follows: Venous blood is collected from healthy volunteers in 10 mM sodium citrate (2 mL sterile sodium citrate for 40 mL blood). Mononuclear cells are isolated with the Leucoprep tubes (Becton Dickenson, product number 2752 or 2751) spun at 1500 g for 15 minutes. Aliquots of 3×10^6 mononuclear cells are added to 24-well tissue culture plates (Corning) in RPMI-1640. After one hour incubation at 37° C., non-adherent cells are gently rinsed off. The adherent cells (macrophages) are given back fresh medium RPMI-1640, 1 mL/well. Macrophage monolayer cultures are pretreated with compounds one hour prior to endotoxin (20 ng/mL, Salmonella typhimurium, Re-mutant, from Ribi Immuchem.) stimulation. Compounds dissolved in 95% ethanol or DMSO would require additional monolayer cultures treated with 10 or 2.5 μl 95% ethanol or DMSO, respectively. Culture supernatants are collected 24 hours later and are tested for IL-1β using a commercial ELISA kit (Cistron). The IL-1β concentration in the culture supernatant is calculated by a standard curve generated from a series of known concentrations. Potency of compound is reported in IC50 (μM).

[2] = Interleukin-1-Beta-Induced Tumor Necrosis Factor Alpha Release by Human Macrophages; assay type: cell-based; conditions: Macrophage; TNF-α release; recombinant human IL-1β 20 ng/mL; compound 1 h before stimulation; supernatant at 24 h; ELISA
Text: Interleukin-1-Beta-Induced Tumor Necrosis Factor Alpha Release by Human Macrophages
To determine the inhibitory concentrations for the test compounds against interleukin-1 beta (IL-1β)-induced tumor necrosis factor alpha (TNFα) release by human peripheral blood monocyte-derived macrophages. It should be understood that this is a test of the ability of the test compounds to modulate, i.e. inhibit, the activity of IL-1β by measuring the inhibition of IL-1β induced release of TNFα.
Source Human peripheral blood monocyte-derived macrophages:
Venous blood is collected form healthy volunteers in 10 mM sodium citrate (2 mL sterile sodium citrate for 40 mL blood). Mononuclear cells are isolated with the Leucoprep tubes (Becton Dickinson, product number 2752 or 2751) spun at 1500 g for fifteen minutes. Aliquots of 3×10^6 mononuclear cells are added to 24-well tissue culture plates (Corning) in RPMI-1640. After 1 hour incubation at 37° C., non-adherent cells are gently rinsed off. The adherent cells (macrophages) are given back fresh medium RPMI-1640, 1 mL/well.
Macrophage monolayer cultures are pretreated with compounds one hour prior to IL-1β (20 ng/mL, recombinant human IL-1β) stimulation. Compounds dissolved in 95% ethanol or DMSO would require additional monolayer cultures treated with 10 or 2.5 μl 95% ethanol or DMSO, respectively. Culture supernatants are collected 24 hours later and are tested for TNF-α using a commercial ELISA kit (Cistron).
The TNF-α concentration in the culture supernatant is calculated by a standard curve generated from a series of known concentrations. Potency of compound is reported in IC50 (μM).

| Compound | IC50 [1] [µM] | IC50 [2] [µM] |
| --- | --- | --- |
| COC(=O)c1cc(=NS(=O)(=O)c2ccccc2)c2ccccc2o1 [4-[Benzenesulfonylimino]-4H-chromene-2-carboxylic acid, methyl ester] | 3 | 2 |
| CNC(=O)c1cc(=NS(=O)(=O)c2ccccc2)c2c(Cl)cc(Cl)cc2[nH]1 [5,7-Dichloro-4-[benzenesulfonylimino]-1,4-dihydroquinoline-2-carboxylic acid-N-methylamide] | 3 | 4 |
| CCOC(=O)c1cc(=NS(=O)(=O)c2ccccc2)c2c(Cl)cc(Cl)cc2[nH]1 [5,7-Dichloro-4-[benzenesulfonylimino]-1,4-dihydroquinoline-2-carboxylic acid, ethyl ester] | 2 | 3 |
| CCCCOC(=O)c1cc(=NS(=O)(=O)c2ccccc2)c2c(Cl)cc(Cl)cc2[nH]1 [5,7-Dichloro-4-[benzenesulfonylimino]-1,4-dihydroquinoline-2-carboxylic acid, butyl ester] | 3 | 5 |
| COC(=O)c1cc(=NS(=O)(=O)c2ccccc2)c2c(Cl)cc(Cl)cc2[nH]1 [5,7-Dichloro-4-[benzenesulfonylimino]-1,4-dihydroquinoline-2-carboxylic acid, methyl ester] | 6 | 3 |
